# From US8221736B2, “Semiochemical” (Rothamsted Research Limited, priority 1999, dated 2012)
# Marks after values point to notes of the source that are not given here.
# Assays:
# [1] = test system: cereal aphids (predominantly Metropolophium dirhodum) on winter wheat, Triticum aestivum; assay: Field study of cereal aphids on sprayed winter wheat plots; format: in vivo; conditions: sprayed 50 g a.i./ha on 5 May and 11 Jun. 1999
# From the text: The data have been transformed back from the logs to ease presentation. […] The predominant aphid species was Metropolophium dirhodum, the rose-grain aphid. S. avenae and Rhopalosiphum padi were also present, but numbers were very low. […] Plots (6 m×6 m) of winter wheat, Triticum aestivum (cv Consort), were arranged in a 5×5 quasi-complete Latin square design. The five cis-jasmone treated plots were sprayed on 5 May and 11 Jun. 1999, using a hand-held hydraulic device, at a rate of 50 g active ingredient/ha in 200 l/ha of aqueous […] BV (0.1%). Control plots were untreated. […] At each count, five tillers were inspected at 12 separate sites on two diagonal transects totalling 60 tillers per plot. Transformed data (y=log(y+1)) were subjected to ANOVA and the sums of squares of the treatments were partitioned to test for significant differences.
# pollen beetles = assay: Field-trapping experiments with yellow bowl traps against pollen beetles; format: in vivo
# Protocol: Field-trapping experiments were also conducted using cis-jasmone against pollen beetles. Attractive yellow bowl traps, at 1 m height and 10 m spacing, were placed in a Latin square design (one row of the Latin square=one replicate; traps are re-randomized to the next row of the square when a mean of 10 beetles are caught per trap). Catches in an unbaited bowl were compared with those bowls baited with cis-jasmone released at two different rates. Analysis was by ANOVA, on transformed total catch data. The transformation used was x=log10(y+1), where x and y are the transformed and untransformed data, respectively. Transformed means were compared using the LSD (least […] difference) test and transformed back to give the results as set out in Table 1.
# P<0.05. Numbers in brackets are the percent reduction in trap catch compared with the unbaited trap.
# adult Lepidoptera = conditions: U.S. Pat. No. 5,665,344; cited from earlier work
# [2] = test system: aphid parasitoid Aphidius ervi; assay: Wind tunnel responses of A. ervi to V. faba plants exposed to the compound; format: in vivo
# Protocol: A possible role for the compound as an airborne plant signal was investigated using the broad bean, V. faba (cv The Sutton). Plants were kept for 24 hours in clean air or in air incorporating cis-jasmone at 100 μg/l; subsequently, samples of volatiles released by the plants were obtained by entrainment over 4 periods of 48 hours, i.e. up to 192 hours after the end of the treatment. The cis-jasmone itself was undetectable after 48 hours. […] There was also, from some replicates, enhancement of (E,E)-α-farnesene, (−)-β-caryophyllene and (E)-4,8-dimethyl-1,3,7-nonatriene. These compounds have all been implicated in herbivorous insect-induced production and increased parasitoid foraging. The nonatriene can also be produced innately by plants imitating damage for defence against herbivores and which are thus attractive to parasitoids.
# Naive female A. ervi were flown in a wind tunnel, as described in J. Chem. Ecol. 16, 381-396 (1996) (Poppy et al.). The parasitoids were released 25 cm downwind (single choice tests) or 40 cm downwind (dual choice test) of the target, which was either a plant or a synthetic compound (10 μg in 10 μl hexane) placed on a 2×1 cm strip of filter paper (Whatman No. 1) surrounded by a ring of green crêpe paper. The proportions of parasitoids responding with an oriented flight to the synthetic chemicals were calculated each day on 3 separate days. These values were then subjected to a logit transformation to normalize the data before being analysed by ANOVA followed by Tukey post-hoc tests. The number of parasitoids orienting upwind to the single plant target were recorded and subjected to a χ^2 contingency test (Pearson method on Genstat—see Genstat 5 Committee. Genstat 5 Reference Manual, Release 3 (Clarendon Press, Oxford, 1993)) to determine whether an orienting response was linked to the type of plant treatment. The numbers orienting to each plant in the dual choice test were analysed by a χ^2 to determine whether one plant was more attractive than the other. […]
# [3] = test system: lettuce aphid Nasonovia ribis-nigri; assay: 4-way olfactometer behavioural assay with alate lettuce aphids; format: in vivo; conditions: 1 μg in hexane on filter paper, 10 min, P<0.05
# Protocol: Behavioural assays were done in a Perspex™ olfactometer similar to that described in J. Entomol. Scand. 1, 63-73 (1970) (Pettersson), with a weak airstream directed towards the centre from each of 4 side arms. The test compound (1 μg) in hexane (10 μl) was placed on filter paper (Whatman No. 1) at the end of one of the side arms, with hexane alone used as a control in the other arms. One alate virginopara of N. ribis-nigri was placed in the centre of the arena and its movements observed over 10 min. The apparatus, maintained at 24° C., was lit from above by fluorescent tubing and was rotated 90° every 2.5 min to avoid any directional bias. The experiment was replicated 6 times and results analysed by Student's t-test.
structure (smiles),measurement,setting,value
CC/C=C\CC1=C(C)CCC1=O [cis-jasmone],"numbers of parasitized aphids, treated versus untreated plots",[1],no significant difference
same,"numbers of cereal aphids per 60 tillers, treated versus untreated plots","[1]; five sampling dates, significant on last two dates",consistently lower
same,percent reduction in trap catch compared with the unbaited trap,"pollen beetles; Analysis A, 2.2 mg/day",(44%)
same,Back-transformed mean catch per replicate,"pollen beetles; Analysis A, 2.2 mg/day, unbaited trap 127.3",70.9^b
same,percent reduction in trap catch compared with the unbaited trap,"pollen beetles; Analysis A, 25 mg/day",(59%)
same,Back-transformed mean catch per replicate,"pollen beetles; Analysis A, 25 mg/day, unbaited trap 127.3",51.7^c
same,percent reduction in trap catch compared with the unbaited trap,"pollen beetles; Experiment A, 2.2 mg/day",(21%)
same,Back-transformed mean catch per replicate,"pollen beetles; Experiment A, 2.2 mg/day, unbaited trap 48.3",38.2^ab
same,percent reduction in trap catch compared with the unbaited trap,"pollen beetles; Experiment A, 25 mg/day",(35%)
same,Back-transformed mean catch per replicate,"pollen beetles; Experiment A, 25 mg/day, unbaited trap 48.3",31.4^b
same,percent reduction in trap catch compared with the unbaited trap,"pollen beetles; Experiment B, 2.2 mg/day",(60%)
same,Back-transformed mean catch per replicate,"pollen beetles; Experiment B, 2.2 mg/day, unbaited trap 333.1",130.7^bc
same,percent reduction in trap catch compared with the unbaited trap,"pollen beetles; Experiment B, 25 mg/day",(75%)
same,Back-transformed mean catch per replicate,"pollen beetles; Experiment B, 25 mg/day, unbaited trap 333.1",84.6^c
same,behavioural effect on adult Lepidoptera,adult Lepidoptera,attract adult Lepidoptera
same,% showing oriented flight,"[2]; V. faba plants 48 hr after exposure (100 μg/l in air), single choice test, hexane control 20, P<0.01",44%
same,parasitoids oriented towards the treated plant compared to the control,[2]; dual choice test of treated or untreated plants,over 3 times
same,% oriented to treated plant,"[2]; dual choice test, treated plant versus control plant, 48 hr after exposure (100 μg/l in air), control plant 10, P<0.05",32%
same,mean number of entries into the treated arm,"[3]; 6 replicates, control arms 4.3±0.58",2.0±0.58
same,mean time spent in the treated arm,[3]; control arms 2.1±0.36 minutes,0.5 ± 0.16 min
